Results as given in patent US10106817B2, “Compositions and methods of use thereof for identifying anti-viral agents” (priority 2013, dated 2018).
Entries after “also recorded” stand apart in the source; their conditions may differ.

What was measured:
Assay type in all cases: cell-based
IE2 = test: Quantitative Western blot of IE2 expression during CMV infection; settings: pre-treatment with activator vs untreated control
Experimental: (§1) MRC5 fibroblasts and life-extended human foreskin fibroblasts (HFFs) (Bresnahan and Shenk, 2000) were maintained in Dulbecco's Modified Eagle's Medium (DMEM) supplemented with 10% fetal bovine serum (FBS) and 50 U/ml penicillin-streptomycin at 37° C. and 5% CO2 in a humidified incubator. ARPE-19 cells were maintained in a 1:1 mixture of DMEM/F-12 (Mediatech Inc.) with 10% FBS (HyClone) and 50 U/ml Penicillin-Streptomycin (Mediatech Inc.). Cells were pretreated in a final concentration of 1 mM VPA (Calbiochem).
MRC5s at ˜60% confluency were infected at MOI=1. To synchronize viral entry, adsorption was done at 4° C. for 30 min., cells washed once in PBS (Mediatech, Inc.), fresh media added, and cells placed at a 37° C. in a humidified CO2 incubator. Time points were collected every 1-2 hrs for 20-24 hrs as indicated. Sample collection, protein transfer, and blot preparation were as previously described (Bolovan-Fritts et al., 2004) and samples were loaded and separated on precast SDS PAGE 10% or 7.5% bisacrylamide gels (BioRad).
For quantitative IE2 detection, the 1° antibody MAB810 (Millipore) was used at 1:100 and 2° antibody 926-32212 (LI-COR™) was used at a dilution of 1:20,000. For normalization, anti-beta tubulin antibody 26-42211 (LI-COR™) used at a dilution of 1:2000 followed by 2′ antibody 926-68073 (LI-COR™) at a dilution of 1:20,000. Blots were scanned and quantified on a LI-COR™ Odyssey™ according to manufacturer's protocols.

IE2-YFP = test: Single-cell time-lapse fluorescence microscopy of IE2-YFP levels, CMV IE2-YFP virus; settings: pretreatment with activator vs untreated control
Experimental: as §1
Life-extended HFFs and PML knockdown HFFs (a gift from Roger Everett) were passed onto a 96-well glass-bottom plate (Thermo Fisher Scientific) and grown to confluency to hold cells in the G0. Cells were synchronously infected on ice for 30 mins at MOI=1 (infection with mutant was done at room temperature). Live cells were imaged using a 20× oil objective on a spinning-disk confocal microscope (Olympus DSU™) equipped with a 37° C., humidified, 5% CO2 live-cell chamber. Image collection began when YFP signal was first detected and frames were captured every 10 minutes for 16-24 hours using an exposure time between 200 and 800 msec. Single-cell tracking and segmentation were performed with custom-written code in MatLab™ (Mathworks) as previously described (Weinberger et al., 2008). Homo-FRET imaging was performed as previously described (Weinberger and Shenk, 2007).

CMV IE2-YFP virus = test: Viral replication kinetics (titer), CMV IE2-YFP virus; settings: for replication fitness of the parent virus (toxicity of exposure alone): VPA or TSA exposure
Experimental: as §1
(§2) Confluent MRC5 monolayers at ˜5×10^4 cells per well were infected at indicated MOIs using 0.45 μm pre-filtered virus inoculum stocks diluted in culture media. Inoculums were calculated based on plaque-assay titrations (Bolovan-Fritts and Wiedeman, 2001), shown as time point 0 in each figure. Inoculum was then removed and replaced with 1 mL fresh media. Infected wells were collected in triplicate at indicated time points and stored at −80° C. To measure replication, samples were thawed and prepared as a 10-fold serial-dilution series in culture media, analyzed by TCID50, then converted to PFU/ml. Error ranges were calculated by standard deviation.

[1] = tested on: MIEP-GFP control cells (MIEP-mCherry-IRES-GFP circuit, ARPE-19); test: Flow cytometry of GFP in non-feedback MIEP-GFP control cells; settings: for GFP median fluorescence intensity: 10 ng/ml TNF-α, 400 nM TSA, or 1 mM VPA
Source text: (§3) Mathematica™ (Wolfram Research) was used for closed-loop analysis. Standard lentiviral cloning was used to create minimal MIE circuits (Dull et al., 1998). The minimal MIEP-IE2-GFP and MIEP-GFP circuits are driven by a full-length ˜2.5 kb MIE promoter-enhancer (MIEP) that spans the sequence from the MIEP modulator at the 5′ edge to the junction of IE exons 1 and 2. The MIEP was PCR-cloned from AD169 into pLEIGW (a gift from Thor Lemishka) in place of the EF1a promoter. This full-length MIEP drives an IE2-IRES-GFP or mCherry-IRES-GFP cassette. IE2 was cloned from pRSV-IE86 (a gift from Jay Nelson). ARPE-19 cells were infected and FACS sorted for GFP to create stably expressing cell lines. Cells were treated with TSA for 17 hours, and GFP expression was quantified by flow cytometry. Live cells were gated by forward-versus-side scattering on a FacsCalibur™ cytometer (BD Biosciences) and mean fluorescence intensity recorded. At least 20,000 live cells were recorded for each experiment and data was analyzed in FlowJo™ (Treestar Inc.).
Cell lines (ARPE-19 cells) expressing IE2-GFP from MIE promoter (MIEP) (referred to as “MIEP-IE2-GFP cells”) were tested, in comparison to a cell line expressing MIEP-GFP control (referred to as “MIEP-GFP control cells). MIEP-IE2-GFP cells and MIEP-GFP control cells were treated with 10 ng/ml TNF-α, 400 nM TSA, or 1 mM VPA in MIEP-IE2-GFP cells. The data are depicted in FIG. 33.

[2] = tested on: MIEP-IE2-GFP cells (MIEP-IE2-IRES-GFP circuit, ARPE-19); test: Flow cytometry of GFP in negative-feedback MIEP-IE2-GFP cells; settings: different levels of activation by TSA treatment, 17 hours
Source text: as §3
Cell lines (ARPE-19 cells) expressing IE2-GFP from MIE promoter (MIEP) (referred to as “MIEP-IE2-GFP cells”) were tested, in comparison to a cell line expressing MIEP-GFP control (referred to as “MIEP-GFP control cells). MIEP-IE2-GFP cells and MIEP-GFP control cells were treated with 10 ng/ml TNF-α, 400 nM TSA, or 1 mM VPA in MIEP-IE2-GFP cells. […]

[3] = tested on: cells expressing the wild-type accelerator circuit MIEP-IE2-IRES-GFP; test: Percentage of live cells by flow cytometry, wild-type accelerator circuit cells; settings: after 14 days of TSA treatment
Experimental: (§4) MIEPΔcrs-IE2-GFP was constructed by PCR cloning MIEPΔcrs from the CMV Δcrs IE2-YFP bacmid and inserted into MIEP-IE2-GFP. ARPE-19 cells were transduced with the MIEP-IE2-GFP and MIEPΔcrs-IE2-GFP vectors and FACS sorted for GFP. The transduced cell lines were allowed to recover for 24 hours before the percentage of GFP-expressing cells for each cell line was quantified. Live cells were gated by forward versus side scattering on a FacsCalibur cytometer. On the first day after recovery, 2,500 GFP events were recorded. Subsequently, at least 10,000 GFP events were recorded for each experiment and analyzed using FlowJo™. For genomic PCR, genomic DNA was purified using a NucleoSpin Tissue kit (Clontech).

[4] = tested on: cells expressing the mutant amplifier circuit MIEPΔcrs-IE2-IRES-GFP; settings: after 14 days of TSA treatment
Experimental: as §4

[5] = tested on: low-passage clinical CMV isolate TB40-E; test: Viral replication (titer), clinical isolate TB40-E
Experimental: as §2

CMV Δcrs mutant virus = test: Replicative fitness of the CMV Δcrs mutant virus (PFU/ml); settings: 72-hour VPA treatment, PFU/ml on day 10 after infection at MOI=1
Experimental: The CMV GFP control virus (Yu et al., 2003) encodes an SV40 promoter-EGFP cassette. The CMV […] IE2-YFP virus was constructed from the CMV IE2-YFP background as described (Cuevas-Bennett and Shenk, 2008). Viral stocks were titered by TCID50 (Nevels et al., 2004). To verify the integrity of the CMV Δcrs IE2-YFP virus, a rescue virus, CMV ΔcrsREVERT IE2-YFP, was constructed by homologous recombination, whereby CMV Δcrs IE2-YFP BAC DNA (20 μg) and a ˜2.5 kb wild-type MIEP DNA fragment (2.5 μg) were co-transfected by electroporation into 10^6 MRC5 cells, and subjected to two rounds of plaque purification.
as §2

Row | Molecule | IE2 protein levels (amplification) (IE2) | rate of IE2 expression (acceleration) (IE2) | rate of IE2 expression in single cells (time to steady-state) (IE2-YFP) | steady-state IE2 levels in single cells (IE2-YFP) | replication fitness of the parent virus (toxicity of exposure alone) (CMV IE2-YFP virus) | GFP median fluorescence intensity [1] | GFP steady-state level as a function of activation (closed-loop dose-response) ([1]; different levels of activation by TSA treatment, 17 hours) | GFP steady-state level as a function of activation (closed-loop dose-response) [2] | viability (percentage of live cells) [3] | viability (percentage of live cells) [4] | increase in viral replication compared to the untreated control (CMV IE2-YFP virus; 72-hour VPA pre-treatment, after the first round of viral maturation (~96 hours), MOI=1) | increase in titer [5] | replication of the mutant amplifier virus (CMV Δcrs mutant virus)
1 | CC(/C=C/C(=O)NO)=C\[C@@H](C)C(=O)c1ccc(N(C)C)cc1 [TSA, Trichostatin A] | do not amplify IE2 protein levels | accelerate IE2 expression | significantly accelerates IE2 expression in single cells | does not amplify steady-state IE2 levels | neither activator reduces replication fitness | significantly increased | linear increase in final level | saturation in steady-state level | little effect on viability | significantly decreased viability | – | – | –
2 | CCCC(CCC)C(=O)O [VPA, Valproic Acid] | do not amplify IE2 protein levels; also recorded: no amplification in IE2 levels | accelerate IE2 expression; also recorded: acceleration | significantly accelerates IE2 expression in single cells; also recorded: decreases time to steady-state | does not amplify steady-state IE2 levels; also recorded: without increasing steady-state IE2-YFP levels | neither activator reduces replication fitness | significantly increased | – | – | – | – | approximately five | nine | Decreased replication
3 | Tumor Necrosis Factor Alpha [TNF-α] | do not amplify IE2 protein levels | accelerate IE2 expression | significantly accelerates IE2 expression in single cells | does not amplify steady-state IE2 levels | – | significantly increased | – | – | – | – | – | – | –
